Reference: PubChem BioAssay AID1963438 (Molecular Pharmacology Branch, DTP, NCI, 2024)
Where “and” joins values, the source holds several entries; their conditions need not be identical. Identical values can stand only once.

System: NCI-H510 multicellular tumor spheroid growth, % test/control
Test: Anticancer human tumor NCI-H510 cell line growth inhibition [Asc];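 further: spheroids exposed to agents for 7 days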;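 on viability, T/C: 100% = DMSO vehicle control wells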
Settings: for viability, T/C: stronger effect = lower value
Outline: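 Stromal components (HUVEC and hMSC) are co-assembled with the cancer cells into multicellular spheroids. Drugs are then added singly or paired, at concentrations falling by half-log increments from a clinically achievable maximum, capped at 10 microM without known Cmax.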

[1] = curve of first compound, second compound 0.01 µM
[2] = curve of first compound, second compound 0.0316 µM
[3] = curve of first compound, second compound 0.1 µM
[4] = curve of first compound, second compound 0.316 µM
[5] = curve of first compound, second compound 1 µM
[6] = second compound 0.01 µM, first compound 0.00316 µM
[7] = second compound 0.01 µM, first compound 0.01 µM
[8] = second compound 0.01 µM, first compound 0.0316 µM
[9] = second compound 0.01 µM, first compound 0.1 µM
[10] = second compound 0.01 µM, first compound 0.316 µM
[11] = second compound 0.01 µM, first compound 1 µM
[12] = second compound 0.0316 µM, first compound 0.00316 µM
[13] = second compound 0.0316 µM, first compound 0.01 µM
[14] = second compound 0.0316 µM, first compound 0.0316 µM
[15] = second compound 0.0316 µM, first compound 0.1 µM
[16] = second compound 0.0316 µM, first compound 0.316 µM
[17] = second compound 0.0316 µM, first compound 1 µM
[18] = second compound 0.1 µM, first compound 0.00316 µM
[19] = second compound 0.1 µM, first compound 0.01 µM
[20] = second compound 0.1 µM, first compound 0.0316 µM
[21] = second compound 0.1 µM, first compound 0.1 µM
[22] = second compound 0.1 µM, first compound 0.316 µM
[23] = second compound 0.1 µM, first compound 1 µM
[24] = second compound 0.316 µM, first compound 0.00316 µM
[25] = second compound 0.316 µM, first compound 0.01 µM
[26] = second compound 0.316 µM, first compound 0.0316 µM
[27] = second compound 0.316 µM, first compound 0.1 µM
[28] = second compound 0.316 µM, first compound 0.316 µM
[29] = second compound 0.316 µM, first compound 1 µM
[30] = second compound 1 µM, first compound 0.00316 µM
[31] = second compound 1 µM, first compound 0.01 µM
[32] = second compound 1 µM, first compound 0.0316 µM
[33] = second compound 1 µM, first compound 0.1 µM
[34] = second compound 1 µM, first compound 0.316 µM
[35] = second compound 1 µM, first compound 1 µM

`CCN1CCN(Cc2ccc(Nc3ncc(F)c(-c4cc(F)c5nc(C)n(C(C)C)c5c4)n3)nc2)CC1` + CNC(C)C(=O)NC1CN(S(=O)(=O)c2cccc(S(=O)(=O)N3CCC4CCC(C(=O)NC(c5ccccc5)c5ccccc5)N4C(=O)C(NC(=O)C(C)NC)C3)c2)CCC2CCC(C(=O)NC(c3ccccc3)c3ccccc3)N2C1=O showed an IC50 [1] of over 1000 nM, an IC50 [2] of over 1000 nM and an IC50 [3] of over 1000 nM. For the same molecule, the IC50 [4] was over 1000 nM, the IC50 [5] was over 1000 nM and the viability, T/C [6] was 109%. It also gave a viability, T/C [7] of 117%, a viability, T/C [8] of 124% and a viability, T/C [9] of 112%. The viability, T/C [10] was 150%, the viability, T/C [11] was 128% and the viability, T/C [12] was 108%. The viability, T/C [13] was 94%, the viability, T/C [14] was 114% and the viability, T/C [15] was 113%. The viability, T/C [16] was 117%, the viability, T/C [17] was 136% and the viability, T/C [18] was 113%. It also gave a viability, T/C [19] of 95.5%, a viability, T/C [20] of 99.3% and a viability, T/C [21] of 108%. It also gave a viability, T/C [22] of 108%, a viability, T/C [23] of 117% and a viability, T/C [24] of 114%. It also gave a viability, T/C [25] of 117%, a viability, T/C [26] of 110% and a viability, T/C [27] of 115%. The viability, T/C [28] was 107%, the viability, T/C [29] was 128% and the viability, T/C [30] was 111%. The viability, T/C [31] was 112%, the viability, T/C [32] was 107% and the viability, T/C [33] was 115%. It also gave a viability, T/C [34] of 123% and a viability, T/C [35] of 127%.

In the case of `O=C(c1cc(Cc2n[nH]c(=O)c3ccccc23)ccc1F)N1CCN(C(=O)C2CC2)CC1` + CNC(C)C(=O)NC1CN(S(=O)(=O)c2cccc(S(=O)(=O)N3CCC4CCC(C(=O)NC(c5ccccc5)c5ccccc5)N4C(=O)C(NC(=O)C(C)NC)C3)c2)CCC2CCC(C(=O)NC(c3ccccc3)c3ccccc3)N2C1=O, the IC50 [1] is reported as 9490 nM, the IC50 [2] is reported as 8070 nM and the IC50 [3] is reported as 8900 nM. The IC50 [4] was 9800 nM, the IC50 [5] was over 10000 nM and the viability, T/C [8] was 103%. The viability, T/C [9] was 98.5%, the viability, T/C [10] was 110% and the viability, T/C [11] was 91.7%. The viability, T/C (second compound 0.01 µM, first compound 3.16 µM) was 89.4%, the viability, T/C (second compound 0.01 µM, first compound 10 µM) was 47.9% and the viability, T/C [14] was 99.8%. It also gave a viability, T/C [15] of 101%, a viability, T/C [16] of 96.2% and a viability, T/C [17] of 109%. It also gave a viability, T/C (second compound 0.0316 µM, first compound 3.16 µM) of 95%, a viability, T/C (second compound 0.0316 µM, first compound 10 µM) of 39.7% and a viability, T/C [20] of 90.3%. The viability, T/C [21] was 89.2%, the viability, T/C [22] was 83.2% and the viability, T/C [23] was 114%. The viability, T/C (second compound 0.1 µM, first compound 3.16 µM) was 91.8%, the viability, T/C (second compound 0.1 µM, first compound 10 µM) was 45.3% and the viability, T/C [26] was 97.8%. It also gave a viability, T/C [27] of 107%, a viability, T/C [28] of 117% and a viability, T/C [29] of 87.5%. For the same molecule, the viability, T/C (second compound 0.316 µM, first compound 3.16 µM) was 89.1%, the viability, T/C (second compound 0.316 µM, first compound 10 µM) was 48.9% and the viability, T/C [32] was 112%. It also gave a viability, T/C [33] of 110%, a viability, T/C [34] of 104% and a viability, T/C [35] of 101%. It also gave a viability, T/C (second compound 1 µM, first compound 3.16 µM) of 92.1% and a viability, T/C (second compound 1 µM, first compound 10 µM) of 58%.

For `C=C(F)C(=O)N1CCN(c2nc(OCC3CCCN3C)nc3c2CCN(c2cccc4cccc(Cl)c24)C3)CC1CC#N` (centres undefined) + CCN1C(C(=O)NC23CCC(C(=O)O)(CC2)CC3)C(c2cccc(Cl)c2F)C2(C(=O)Nc3cc(Cl)ccc32)C12CCCCC2, the IC50 (curve of first compound, second compound 0.03 µM) was 1170 nM, the IC50 (curve of first compound, second compound 0.0949 µM) was 1100 nM and the IC50 (curve of first compound, second compound 0.3 µM) was 1280 nM. It also gave an IC50 (curve of first compound, second compound 0.949 µM) of 717 nM, an IC50 (curve of first compound, second compound 3 µM) of 1180 nM and a viability, T/C (second compound 0.03 µM, first compound 0.0316 µM) of 93.8%. The viability, T/C (second compound 0.03 µM, first compound 0.1 µM) was 103%, the viability, T/C (second compound 0.03 µM, first compound 0.316 µM) was 88.3% and the viability, T/C (second compound 0.03 µM, first compound 1 µM) was 58.2%. The viability, T/C (second compound 0.03 µM, first compound 3.16 µM) was 1.61%, the viability, T/C (second compound 0.03 µM, first compound 10 µM) was 0.12% and the viability, T/C (second compound 0.0949 µM, first compound 0.0316 µM) was 78.5%. For the same molecule, the viability, T/C (second compound 0.0949 µM, first compound 0.1 µM) was 89%, the viability, T/C (second compound 0.0949 µM, first compound 0.316 µM) was 100% and the viability, T/C (second compound 0.0949 µM, first compound 1 µM) was 54.6%. The viability, T/C (second compound 0.0949 µM, first compound 3.16 µM) was 3.81%, the viability, T/C (second compound 0.0949 µM, first compound 10 µM) was 0.11% and the viability, T/C (second compound 0.3 µM, first compound 0.0316 µM) was 106%. For the same molecule, the viability, T/C (second compound 0.3 µM, first compound 0.1 µM) was 88%, the viability, T/C (second compound 0.3 µM, first compound 0.316 µM) was 109% and the viability, T/C (second compound 0.3 µM, first compound 1 µM) was 62.5%. The viability, T/C (second compound 0.3 µM, first compound 3.16 µM) was 7.29%, the viability, T/C (second compound 0.3 µM, first compound 10 µM) was 0.11% and the viability, T/C (second compound 0.949 µM, first compound 0.0316 µM) was 95.3%. The viability, T/C (second compound 0.949 µM, first compound 0.1 µM) was 91.4%, the viability, T/C (second compound 0.949 µM, first compound 0.316 µM) was 88.5% and the viability, T/C (second compound 0.949 µM, first compound 1 µM) was 34.3%. The viability, T/C (second compound 0.949 µM, first compound 3.16 µM) was 4.93%, the viability, T/C (second compound 0.949 µM, first compound 10 µM) was 0.1% and the viability, T/C (second compound 3 µM, first compound 0.0316 µM) was 87.5%. The viability, T/C (second compound 3 µM, first compound 0.1 µM) was 121%, the viability, T/C (second compound 3 µM, first compound 0.316 µM) was 95% and the viability, T/C (second compound 3 µM, first compound 1 µM) was 52.5%. For the same molecule, the viability, T/C (second compound 3 µM, first compound 3.16 µM) was 20.7% and the viability, T/C (second compound 3 µM, first compound 10 µM) was 0.18%.

For `C#Cc1c(F)ccc2cc(O)cc(-c3ncc4c(N5CC6CCC(C5)N6)nc(OCC56CCCN5CC(F)C6)nc4c3F)c12` (centres undefined), the viability, T/C (compound 0.0316 µM) was 111% and 93.4% and 94.4%, the viability, T/C (compound 0.1 µM) was 104% and 103% and 112% and the viability, T/C (compound 0.316 µM) was 99.3% and 99.1% and 92.8%. The viability, T/C (compound 1 µM) was 94.8% and 105% and 84.2%, the viability, T/C (compound 3.16 µM) was 106% and 112% and 123% and the viability, T/C (compound 10 µM) was 99.8% and 88.4% and 92.8%. The IC50 (curve of compound) was over 10000 nM.

`COc1c(OCCCN2CCOCC2)ccc2c3n(c(=NC(=O)c4cnc(N)nc4)nc12)CCN3` + CNC(C)C(=O)NC1CN(S(=O)(=O)c2cccc(S(=O)(=O)N3CCC4CCC(C(=O)NC(c5ccccc5)c5ccccc5)N4C(=O)C(NC(=O)C(C)NC)C3)c2)CCC2CCC(C(=O)NC(c3ccccc3)c3ccccc3)N2C1=O was tested, and the IC50 [1] was over 1000 nM, the IC50 [2] was over 1000 nM and the IC50 [3] was over 1000 nM. For the same molecule, the IC50 [4] was over 1000 nM, the IC50 [5] was over 1000 nM and the viability, T/C [6] was 119%. The viability, T/C [7] was 104%, the viability, T/C [8] was 118% and the viability, T/C [9] was 130%. The viability, T/C [10] was 127%, the viability, T/C [11] was 128% and the viability, T/C [12] was 106%. The viability, T/C [13] was 114%, the viability, T/C [14] was 125% and the viability, T/C [15] was 117%. For the same molecule, the viability, T/C [16] was 120%, the viability, T/C [17] was 113% and the viability, T/C [18] was 92.2%. The viability, T/C [19] was 109%, the viability, T/C [20] was 106% and the viability, T/C [21] was 128%. For the same molecule, the viability, T/C [22] was 112%, the viability, T/C [23] was 125% and the viability, T/C [24] was 115%. It also gave a viability, T/C [25] of 104%, a viability, T/C [26] of 108% and a viability, T/C [27] of 105%. The viability, T/C [28] was 121%, the viability, T/C [29] was 109% and the viability, T/C [30] was 107%. It also gave a viability, T/C [31] of 113%, a viability, T/C [32] of 112% and a viability, T/C [33] of 139%. The viability, T/C [34] was 116% and the viability, T/C [35] was 110%.

With `C=CC(=O)N1CCN(c2nc(=O)n(-c3c(C)ccnc3C(C)C)c3nc(-c4c(O)cccc4F)c(F)cc23)C(C)C1` (centres undefined) the viability, T/C (compound 0.0316 µM) was 101% and 89.6% and 100%, the viability, T/C (compound 0.1 µM) was 100% and 95.4% and 104% and the viability, T/C (compound 0.316 µM) was 105% and 90.3% and 98.7%. The viability, T/C (compound 1 µM) was 94.5% and 82.8% and 106%, the viability, T/C (compound 3.16 µM) was 108% (2×) and 100% and the viability, T/C (compound 10 µM) was 96.6% and 75.9% and 110%. It also gave an IC50 (curve of compound) of over 10000 nM.
